Measurements: patent publication US20240345376A1, “SYSTEM AND METHOD FOR NANOSCALE AXIAL LOCALIZATION AND SUPER […] IMAGING WITH HEIGHT-[…]” (The George Washington University, priority 2021, published 2024)

Test system: SKBR3 cells
Assay: Plasma membrane tension and bending modulus mapping from MAxSIM height fluctuation data in live cells
Type: cell-based
Conditions: 5 μM for 30 minutes, FIG. 12C
Description: Analysis of single-pixel-level plasma membrane biomechanics in live cells using the time-dependent membrane heights acquired by MAxSIM imaging: Utilizing MAxSIM technology, we mapped the membrane tension and bending modulus of plasma membranes in MCF7 cells (low HER2 expression) and SKBR3 (HER2 overexpression enabling constitutive HER2 activity). […] This approach, based on the Helfrich-Canham model, has been commonly employed in the literature, allowing the membrane tension (o) and bending modulus (K) to be linked to height fluctuations by the following equation.
where ? |h(q)|^2 ? represents the power spectral density of the membrane height fluctuations, q is the wave vector, kbT is the thermal energy, σ is the membrane tension, and κ is the bending modulus. From fitting the raw experimental data to this function, membrane tension (σ) and bending modulus (κ) are extracted (FIGS. 12A, 12B, 12C). To identify mechanical compartments, we will utilize and compare various cluster analysis methods we have tested, including K-means analysis, which groups similar data points into K clusters based on their proximity to cluster centers, and DBscan, a density-based clustering algorithm that groups data points based on their proximity.
1. Super-resolution imaging and single-molecule-tracking tools and mechanical property measurements: a. […]

C/C1=C/C(=O)O[C@@H]2C[C@@H](CC[C@H](C)/C=C\C=C\CC1)O[C@@](O)([C@@H]1CSC(=O)N1)C2 [latrunculin A]
mechanical compartmentalization (membrane tension and bending modulus) on the basal plasma membrane: significant reduction
